Measurements reported in the SangsterLogP compilation.

Compound	logP
CCCCOCCOCCOCCCC	1.92
COC(=O)CCC(=O)OC	0.19
CCCCCCOCCO	1.86
CCOCCOCC	0.66
CCOC(=O)CCC(=O)OCC	1.19
CCOCCOCCOCC	0.39
COCCOCCOC	-0.36
CCCCOCCCC	3.21
CCCOC(=O)CCC(=O)OCCC	2.16
COCCOC	-0.21

More lines, now with the values ahead:

logP	Compound
1.7	CCCCCCOCCOCCO
0.56	CCCCOCCOCCO
-0.54	CCOCCOCCO
0.76	CCCCOCCO
2.48	CCCCOCCOCCCC
